# Source: patent US6027747A, “Process for the production of dry pharmaceutical forms and the thus obtained pharmaceutical compositions” (priority 1998, dated 2000)
# Values joined by “and” are separate entries in the source; they are usually repeats but may differ in a detail not shown here. Equal entries are not always repeated.
# Test: Kinetics of dissolution of fenofibrate (UV 278 nm)
# Format: physicochemical
# Settings: for kinetics of dissolution of fenofibrate: 5 mg/l, one value per dish, Dish 1 to 6 in order
# Description: The system of measurements used for the galenical control of the solid dispersions was made of two members: an apparatus of dissolution DISSOLUTEST DT 6 from ERWEKA [Euraf 55 rue Deschanel 92400 Courbevoie (France)] and a peristaltic pump 505 SR WATSON-MARLOW from Prolabo. Each test of dissolution was performed in one liter of degassed distilled water at 37° C. and at a pH near neutral. A sample of 4 mg of estradiol (i.e. 25 mg co-precipitate) was introduced in each of the six reactors at time t=0 and the speed of stirring of the paddles was 100 rounds/min. The dosages by UV (absorption at 278 nm) were performed continuously and in a closed circuit of a multi-channel peristaltic pump, connecting the beakers of the Dissolutest to the dishes of the spectrophometer. The latter was linked to a recorder and to a printing machine to permit the measurement at steady intervals of every 3 minutes of the variations of the optical density, themselves being proportional to the variations of the concentration of the active ingredient in the dissolution medium.
# This was identical to that used for the study of the kinetics of dissolution for the co-precipitates of estradiol.
# Therefore, it had been decided to prepare a calibrating range at 5 mg/l as for progesterone and to determine the kinetics of dissolution while introducing an equivalent amount of co-precipitate.
compound,measurement,setting,value
CC(C)OC(=O)C(C)(C)Oc1ccc(C(=O)c2ccc(Cl)cc2)cc1 [Fenofibrate],kinetics of dissolution of fenofibrate,0 min,0
same,kinetics of dissolution of fenofibrate,3 min,95.26 and 98.94 and 93.68 and 94.21 and 93.15
same,kinetics of dissolution of fenofibrate,6 min,92.1 and 95.78 and 91.05 and 90.52
same,kinetics of dissolution of fenofibrate,9 min,87.89 and 91.05 and 86.31 and 85.78
same,kinetics of dissolution of fenofibrate,12 min,83.68 and 86.31 and 82.1 and 83.15 and 80.52
same,kinetics of dissolution of fenofibrate,15 min,80.52 and 83.15 and 78.42 and 80 and 76.84
same,kinetics of dissolution of fenofibrate,18 min,77.89 and 77.36 and 80 and 75.26 and 74.21
same,kinetics of dissolution of fenofibrate,21 min,74.73 and 76.84 and 71.57 and 73.68 and 71.05
same,kinetics of dissolution of fenofibrate,24 min,72.1 and 73.68 and 68.94 and 71.05 and 68.42
same,kinetics of dissolution of fenofibrate,27 min,70 and 71.57 and 66.84 and 68.94 and 66.31
same,kinetics of dissolution of fenofibrate,30 min,68.42 and 67.89 and 69.47 and 64.73 and 67.36
same,recrystallization in the course of the dissolution test,in words,a recrystallization of fenofibrate had been observed
